The target in assay [1] is BRD4 (BD1) (Homo sapiens (Human), UniProt O60885). Kind of assay: In vitro BRD4 (BD1) enzymatic activity assay (HTRF). It counts as binding. Particulars: GST-BRD4 (BD1, 44-168 aa). How it is done: In the present application, IC50 values of the compounds in inhibiting BRD4 (BD1) enzyme binding reaction were determined by homogeneous time resolved fluorescence (HTRF). A compounds was serially diluted 5-fold with 100% DMSO starting from 0.2 mM (7 concentrations in total), and then 2 μL of the compound at each concentration was added to 48 μL of a reaction buffer (20 mM HEPES pH 7.5, 150 mM NaCl, 5 mM DTT, 0.005% Tween 20, and 100 μg/mL BSA) for dilution, and mixed well. 2.5 μL of the resulting mixture was added to a 384-well plate (OptiPlate-384, purchased from PerkinElmer), then 5 μL of GST-BRD4 (BD1, 44-168 aa) (final concentration: 1 nM) was added, and the resulting mixture was centrifuged, and fully mixed. 2.5 μL of a short peptide Biotin-AHA-SGRGK(Ac)GGK(Ac)GLGK(Ac)GGAK(Ac) RHRKV (final concentration: 100 nM) was then added to initiate the reaction (total reaction volume: 10 μL). The 384-well plate was placed in an incubator at 23° C. to react for 1 hour, and then 5 μL of Eu3+ cryptate-labled anti-GST antibody (purchased from Cisbio) and 5 μL of Streptavidin-XL-665 (purchased from Cisbio) were added to terminate the reaction. After being incubated in the incubator for another 1 hour, the fluorescence values (excited at 320 nm, emitted light at 665 nm and 620 nm being detected, and the ratio of the two being the enzyme binding signal) were read on Envision (purchased from PerkinElmer). The binding strength of each compound to BRD4 (BD1) protein was determined respectively at 7 concentrations, and the data were calculated using GraphPad Prism software to obtain the IC50 value of the compound.
A general note: In TR-FRET formats the signal depends on donor and acceptor labels being close together.

Assay [2] addresses BRD4 (BD2) (Homo sapiens (Human), UniProt O60885). The assay can be described thus: In vitro BRD4 (BD2) enzymatic activity assay (HTRF). Conditions: GST-BRD4 (BD2, 349-460 aa). It counts as binding. The method, then:
In the present application, IC50 values of the compounds in inhibiting BRD4 (BD2) enzyme binding reaction were determined by homogeneous time resolved fluorescence (HTRF). A compound was serially diluted 5-fold with 100% DMSO starting from 1 mM (7 concentrations in total), and then 2 μL of the compound at each concentration was added to 18 μL of a reaction buffer (20 mM HEPES pH 7.5, 150 mM NaCl, 5 mM DTT, 0.005% Tween 20, and 100 μg/mL BSA) for dilution. After being mixed well, 2 μL of the compound at each concentration was added to 48 μL of the above reaction buffer for dilution, and mixed well (final concentration of the compound in DMSO: 0.1%). 2.5 μL of the resulting mixture was added to a 384-well plate (OptiPlate-384, purchased from PerkinElmer), then 5 μL of GST-BRD4 (BD2, 349-460 aa) (final concentration: 2 nM) was added, and the resulting mixture was centrifuged, and fully mixed. 2.5 μL of a peptide Biotin-AHA-SGRGK(Ac)GGK(Ac)GLGK(Ac)GGAK(Ac) RHRKV (final concentration: 200 nM) was then added to initiate the reaction (total reaction volume: 10 μL). The 384-well plate was placed in an incubator at 23° C. to react for 1 hour, and then 5 μL of Eu3+ cryptate-labled anti-GST antibody (purchased from Cisbio) and 5 μL of Streptavidin-XL-665 (purchased from Cisbio) were added to terminate the reaction. After being incubated in the incubator for another 1 hour, the fluorescence values (excited at 320 nm, emitted light at 665 nm and 620 nm being detected, and the ratio of the two being the enzyme binding signal) were read on Envision (purchased from PerkinElmer). The binding strength of each compound to BRD4 (BD2) protein was determined respectively at 7 concentrations, and the data were calculated using GraphPad Prism software to obtain the IC50 value of the compound.

Assay [3] relates to MV4-11 cells. The assay can be described thus: Cell proliferation activity assay in MV4-11. It counts as cell-based. Conditions: Homo sapiens, inhibiting cell proliferation, 72 hours, Cell-Titer Blue. How it is done: (§1) Human acute lymphoblastic leukemia cell line MV4-11 cells were cultured in PRIM1640 medium plus 10% fetal bovine serum (FBS, purchased from Biological Industries, BI) and 1% penicillin/streptomycin double antibody (P/S, purchased from Life Technology) at 37° C. with 5% CO2. On the day before the compound test, MV4-11 cells were spread in a 96-well plate (purchased from Corning) at a concentration of 8000 cells/195 μL/well. After 24 hours, the compound was serially diluted 4-fold with 100% DMSO starting from 10 mM (9 concentrations in total), and then 2 μL of the compound at each concentration was added to 48 μL of PRIM1640 medium for dilution. 5 μL of the diluted compound at each concentration was added to the wells spread with the cell suspension, and the compound and cells were co-incubated in a cell incubator for 72 hours (3 days). Then the mixture was added with 35 μL of Cell-Titer Blue reagent (purchased from Promega) and incubated for another 4 hours. The fluorescence values (excited at 560 nm, detected at 590 nm) were then read on Flexstation III, and the data were calculated using GraphPad Prism software to give IC50 value of the compound in inhibiting cell proliferation.

Assay [4] relates to Kasumi-1 cells. The assay can be described thus: Cell proliferation activity assay in Kasumi-1. It counts as cell-based. Conditions: Homo sapiens, inhibiting cell proliferation, 72 hours, Cell-Titer Blue. The method, then: as §1, with “myeloblastic” for “lymphoblastic”, “Kasumi-1” for “MV4-11”, “20%” for “10%”, “5000” for “8000”

As for `Cc1cc(F)cc(C)c1Oc1ccc(N=S(C)(C)=O)cc1-c1cn(C)c(=O)c2[nH]ccc12` [Example 11, 4-{5-{[dimethyl(oxo)-λ^6-sulfanylidene]amino}-2-(4-fluoro-2,6-dimethylphenoxy)phenyl}-6-methyl-1,6-dihydro-7H-pyrrolo[2,3-c]pyridin-7-one], the IC50 in assay [1] is 29.4 nM; in assay [2], 1.3 nM; in assay [3], 124 nM; in assay [4] it was 53.2 nM.
For the compound `CCNC(=O)c1cc2c(-c3cc(N=S(C)(C)=O)cnc3Oc3c(C)cc(F)cc3C)cn(C)c(=O)c2[nH]1` [Example 16, 4-{5-{[dimethyl(oxo)-λ^6-sulfanylidene]amino}-2-(4-fluoro-2,6-dimethylphenoxy)pyridin-3-yl}-N-ethyl-6-methyl-7-oxo-6,7-dihydro-1H-pyrrolo[2,3-c]pyridine-2-carboxamide], the IC50 in assay [1] stood at 86.4 nM; in assay [2], 0.4 nM; in assay [3], 120 nM; in assay [4] it was 20.7 nM.
Consider `Cc1ncccc1Oc1ccc(N=S(C)(C)=O)cc1-c1cn(C)c(=O)c2[nH]ccc12` [Example 9, 4-{5-{[dimethyl(oxo)-λ^6-sulfanylidene]amino}-2-[(2-methyl-pyridin-3-yl)oxy]phenyl}-6-methyl-1,6-dihydro-7H-pyrrolo[2,3-c]pyridin-7-one], for which the IC50 in assay [1] turned out to be 3 nM; in assay [2], 0.75 nM.
With `Cn1cc(-c2cc(N=S(C)(C)=O)ccc2OCC2CCOC2)c2cc[nH]c2c1=O` (stereo not drawn) [Example 12, 4-{5-{[dimethyl(oxo)-λ^6-sulfanylidene]amino}-2-[(tetrahydrofuran-3-yl)methoxy]phenyl}-6-methyl-1,6-dihydro-7H-pyrrolo[2,3-c]pyridin-7-one], the IC50 in assay [1] worked out at 4.1 nM; in assay [2], 1.1 nM; in assay [3], 27.8 nM; in assay [4] it was 20.7 nM.
For `Cc1cccc(Cl)c1Oc1ncc(N=S(C)(C)=O)cc1-c1cn(C)c(=O)c2[nH]ccc12` [Example 20, 4-{2-(2-chloro-6-methylphenoxy)-5-{[dimethyl(oxo)-λ^6-sulfanylidene]amino}-pyridin-3-yl}-6-methyl-1,6-dihydro-7H-pyrrolo[2,3-c]pyridin-7-one], the IC50 was determined as 12.9 nM in assay [1], 0.27 nM in assay [2], 75 nM in assay [3] and 9.25 nM in assay [4].
Regarding `Cc1cc(F)cc(C)c1Oc1ccc(N=S(C)(C)=O)cc1-c1cn(C)c(=O)c2[nH]c(C(=O)NCC(F)(F)F)cc12` [Example 22, 4-{5-{[dimethyl(oxo)-λ^6-sulfanylidene]amino}-2-(4-fluoro-2,6-dimethylphenoxy)phenyl}-6-methyl-7-oxo-N-(2,2,2-trifluoroethyl)-6,7-dihydro-1H-pyrrolo[2,3-c]pyridine-2-carboxamide], the IC50 in assay [1] was determined as 188 nM; in assay [2] it was 0.88 nM.
Take `Cn1cc(-c2cc(N=S3(=O)CCCC3)ccc2Oc2ccc(F)cc2F)c2cc[nH]c2c1=O` [Example 15, 4-{2-(2,4-difluorophenoxy)-5-[(1-oxidotetrahydro-1λ^6-thiophen-1-ylidene)amino]phenyl}-6-methyl-1,6-dihydro-7H-pyrrolo[2,3-c]pyridin-7-one]: the IC50 in assay [1] was 4.5 nM; in assay [2] it was 1.2 nM; in assay [3], 9.1 nM; in assay [4], 13.7 nM.
For `CCNC(=O)c1cc2c(-c3cc(N=S(C)(C)=O)ccc3Oc3c(C)cc(F)cc3C)cn(C)c(=O)c2[nH]1` [Example 10, 4-{5-{[dimethyl(oxo)-λ^6-sulfanylidene]amino}-2-(4-fluoro-2,6-dimethylphenoxy)phenyl}-N-ethyl-6-methyl-7-oxo-6,7-dihydro-1H-pyrrolo[2,3-c]pyridine-2-carboxamide], the IC50 in assay [1] was 96.3 nM; in assay [2] it was 0.53 nM; in assay [3] it was 240 nM; in assay [4], 66.3 nM.
Take `Cn1cc(-c2cc(N=S(C)(C)=O)ccc2Nc2ccc(F)cc2F)c2cc[nH]c2c1=O` [Example 8, 4-{2-(2,4-difluorophenyl)amino-5-[dimethyl(oxo)-λ^6-sulfanylidene]aminophenyl}-6-methyl-1,6-dihydro-7H-pyrrolo[2,3-c]pyridin-7-one]: the IC50 came out at 2.4 nM in assay [1], 1.3 nM in assay [2], 16.1 nM in assay [3] and 9.3 nM in assay [4].
With `Cn1cc(-c2cc(N=S(C)(C)=O)ncc2Oc2ccc(F)cc2F)c2cc[nH]c2c1=O` [Example 19, 4-{5-(2,4-difluorophenoxy)-2-{[dimethyl(oxo)-λ^6-sulfanylidene]amino}-pyridin-4-yl}-6-methyl-1,6-dihydro-7H-pyrrolo[2,3-c]pyridin-7-one], the IC50 in assay [1] is 7.3 nM; in assay [2] it was 0.61 nM; in assay [3], 54 nM; in assay [4] it was 7.37 nM.
As for `Cc1cn(-c2ccc(N=S(C)(C)=O)cc2-c2cn(C)c(=O)c3[nH]ccc23)ccc1=O` [Example 17, 4-{5-{[dimethyl(oxo)-λ^6-sulfanylidene]amino}-2-[3-methyl-4-oxopyridin-1(4H)-yl]phenyl}-6-methyl-1,6-dihydro-7H-pyrrolo[2,3-c]pyridin-7-one], the figures for the IC50 in assay [1] and in assay [2] were 330 nM and 4 nM, respectively.
As for `Cn1cc(-c2cc(N=S(C)(C)=O)ccc2Oc2ccc(C#N)cc2F)c2cc[nH]c2c1=O` [Example 2, 4-{4-{[dimethyl(oxo)-λ^6-sulfanylidene]amino}-2-(6-methyl-7-oxo-6,7-dihydro-1H-pyrrolo[2,3-c]pyridin-4-yl)phenoxy}-3-fluorobenzonitrile], the figures for the concentration for half-maximal inhibition (IC50) in assay [3] and in assay [4] were 15.1 nM and 6.6 nM, respectively.
The corresponding values for `CCNC(=O)c1cc2c(-c3cc(N=S(C)(C)=O)ccc3Oc3ccc(S(C)(=O)=O)cc3)cn(C)c(=O)c2[nH]1` [Example 1, 4-{5-{[dimethyl(oxo)-λ^6-sulfanylidene]amino}-2-[4-(methylsulfonyl)phenoxy]phenyl}-N-ethyl-6-methyl-7-oxo-6,7-dihydro-1H-pyrrolo[2,3-c]pyridine-2-carboxamide] are 124 nM and 322 nM.

In general, IC50 refers to the concentration that gives 50% inhibition. The low end stands for higher potency, the high end for lower potency.
